This is an account of results in US20240158446A1, “CYCLIC COMPOUND HAVING SELECTIVE INHIBITORY ACTION ON KRAS OVER HRAS AND NRAS” (CHUGAI SEIYAKU KABUSHIKI KAISHA, priority 2021, published 2024).

*1 amine or outer side, *2 acyl side, *3 side chain or, on linkers, in order; H or OH if unused. Where a SMILES comes first, the peptide text is derived from it. Bridges are numbered along the chain shown (N, C = ends). [ ]: non-standard residue; d: D form. The star is where a group is joined. hPhe(3-Cl-4-CF3) = N[C@@H](CCc1ccc(C(F)(F)F)c(Cl)c1)C(=O)O; NPrPhe(4-CF3) = CCCN[C@@H](Cc1ccc(C(F)(F)F)cc1)C(=O)O; NEtAsp = CCN([C@@H](CC(=O)[*:3])C(=O)[*:2])[*:1]; NMeGly(cPent) = CN[C@H](C(=O)O)C1CCCC1; NMeD = CN[C@@H](CC(=O)O)C(=O)O; Ac4c(3-oxa) = NC1(C(=O)O)COC1; NMeL = CN[C@@H](CC(C)C)C(=O)O; Morpholide = C1CN(*)CCO1; Ac4c = NC1(C(=O)O)CCC1; Sar = CNCC(=O)O

The target of assay [1] is GDP-bound KRAS wild-type protein (Homo sapiens, UniProt P01116). The assay is described as follows: Binding to KRAS by surface plasmon resonance (SPR), Single Cycle Kinetics. Conditions: SPR, Single Cycle Kinetics, GDP-bound KRAS wild-type protein; read-out: KRAS KD.
For assay [2], the system named is human lung cancer strain NCI-H441. The assay is described as follows: cells. Particulars: NCI-H441, 96 h, read-out: NCI-H441 IC50 (nM), NCI-H441 cell proliferation, 4 days, CellTiter-Glo. (In ATP-based viability assays light output follows the ATP content of the culture.);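 note: cell proliferation inhibition after four days measured by CellTiter-Glo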
In assay [3] the target is GDP-bound NRAS wild-type protein (Homo sapiens, UniProt P01111). Kind of assay: Binding to NRAS by surface plasmon resonance (SPR), Single Cycle Kinetics. Conditions: ratio of KD for GDP-bound NRAS wild-type protein to KD for KRAS, SPR.
Assay [4] concerns the target GDP-bound HRAS wild-type protein (Homo sapiens, UniProt P01112). Kind of assay: Binding to HRAS by surface plasmon resonance (SPR), Single Cycle Kinetics. Particulars: ratio of KD for GDP-bound HRAS wild-type protein to KD for KRAS, SPR. On the technique in general: Surface plasmon resonance follows binding to a sensor surface in real time, without labels.

Chain of GDP-bound HRAS wild-type protein (P01112 whole entry): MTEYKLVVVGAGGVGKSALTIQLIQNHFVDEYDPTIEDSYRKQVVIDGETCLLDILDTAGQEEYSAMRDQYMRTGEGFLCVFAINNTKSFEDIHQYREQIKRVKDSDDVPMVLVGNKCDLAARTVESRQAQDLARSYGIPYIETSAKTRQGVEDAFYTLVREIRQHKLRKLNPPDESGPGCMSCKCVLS
Chain of GDP-bound NRAS wild-type protein (P01111 whole entry): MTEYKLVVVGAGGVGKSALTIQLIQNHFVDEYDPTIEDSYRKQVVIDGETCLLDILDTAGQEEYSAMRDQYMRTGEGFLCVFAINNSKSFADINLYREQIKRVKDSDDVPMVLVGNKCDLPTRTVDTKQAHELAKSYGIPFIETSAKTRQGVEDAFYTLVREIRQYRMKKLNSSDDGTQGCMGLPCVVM
Chain of GDP-bound KRAS wild-type protein (P01116 whole entry): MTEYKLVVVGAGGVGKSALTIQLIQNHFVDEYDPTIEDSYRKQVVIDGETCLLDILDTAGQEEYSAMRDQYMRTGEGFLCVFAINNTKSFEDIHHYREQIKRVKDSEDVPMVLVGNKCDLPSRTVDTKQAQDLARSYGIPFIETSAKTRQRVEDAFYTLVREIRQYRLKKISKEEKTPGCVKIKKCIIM

What is called Kd is the concentration at which binding is half-saturated. As for `CCCN(C)C(=O)[C@@H]1CC(=O)N(C)[C@@H](CC(F)F)C(=O)N[C@@H]([C@@H](C)CC)C(=O)N(C)CC(=O)N(C)[C@H]2C/C=C\CCN(C2=O)[C@@H](Cc2ccc(C(F)(F)F)cc2)C(=O)N(C)CC(=O)N[C@@H](CCc2cc(F)c(C(F)(F)F)c(F)c2)C(=O)N2C[C@H](OCC)C[C@H]2C(=O)NC2(CC(F)(F)C2)C(=O)N(C)[C@@H](C2CCCC2)C(=O)N1C` [PP1733], in assay [1], the Kd came to 0.11 nM. Moreover, the IC50 in assay [2] was determined as 3.8 nM. Further, in assay [3], the “NRAS/KRAS (KD ratio)” value is “A (a compound having 10 or more and less than 20 is denoted as A)”. Besides, the “HRAS/KRAS (KD ratio)” value in assay [4] was “A (a compound having 10 or more and less than 20 is denoted as A)”.

As for `CCCC[C@H]1C(=O)N[C@@H]([C@@H](C)CC)C(=O)N(C)CC(=O)N(C)[C@H]2C/C=C\CCN(C2=O)[C@@H](Cc2ccc(C(F)(F)F)cc2)C(=O)N(C)CC(=O)N[C@@H](CCc2cc(F)c(C(F)(F)F)c(F)c2)C(=O)N2CC(F)(F)C[C@H]2C(=O)NC2(CC(C)(C)C2)C(=O)N(C)[C@@H](C2CCCC2)C(=O)N(C)[C@H](C(=O)N(C)C)CC(=O)N1C` [PP1714], the Kd in assay [1] turned out to be 0.1 nM. Moreover, in assay [2], the IC50 came to 4.3 nM. Further, the “NRAS/KRAS (KD ratio)” value in assay [3] is “A (a compound having 10 or more and less than 20 is denoted as A)”. The “HRAS/KRAS (KD ratio)” value in assay [4] was “A (a compound having 10 or more and less than 20 is denoted as A)”.

On to `CCO[C@@H]1C[C@H]2C(=O)NC3(CC(C)(C)C3)C(=O)N(C)[C@@H](C3CCCC3)C(=O)N(C)[C@H](C(=O)N(CC)CC)CC(=O)N(C)[C@@H](CC)C(=O)N[C@@H]([C@@H](C)CC)C(=O)N(C)CC(=O)N(C)[C@H]3C/C=C\CCN(C3=O)[C@@H](Cc3ccc(C)cc3)C(=O)N(C)CC(=O)N[C@@H](CCc3ccc(C(F)(F)F)c(Cl)c3)C(=O)N2C1` [PP1883], for which, in assay [1], the Kd worked out at 0.28 nM. Further, the IC50 in assay [2] worked out at 24 nM. Besides, the “NRAS/KRAS (KD ratio)” value in assay [3] was “A (a compound having 10 or more and less than 20 is denoted as A)”. Besides, the “HRAS/KRAS (KD ratio)” value in assay [4] was “A (a compound having 10 or more and less than 20 is denoted as A)”.

Regarding `CCCN1C(=O)CN(C)C(=O)CN(C)C(=O)[C@H]([C@@H](C)CC)NC(=O)[C@H](CC(C)C)N(C)C(=O)C[C@@H](C(=O)N(C)C)N(CC)C(=O)[C@H](C2CCCC2)N(C)C(=O)C2(CCC2)NC(=O)[C@@H]2CCCN2C(=O)[C@H](CCc2ccc(C(F)(F)F)c(Cl)c2)NC(=O)CN(C)C(=O)[C@@H]1Cc1ccc(C(F)(F)F)cc1` [PP1956] ([NMeL]I[Sar][Sar][NPrPhe(4-CF3)][Sar][hPhe(3-Cl-4-CF3)]P[Ac4c][NMeGly(cPent)][NEtAsp]-NMe2; lactam N-11), in assay [1], the Kd was determined as 0.28 nM. Further, the IC50 in assay [2] worked out at 2.2 nM. For the same compound, the “NRAS/KRAS (KD ratio)” value in assay [3] was “B (a compound having 3 or more and less than 10 is denoted as B)”. In addition, the “HRAS/KRAS (KD ratio)” value in assay [4] is “B (a compound having 3 or more and less than 10 is denoted as B)”.

As for `CC[C@H](C)[C@@H]1NC(=O)[C@H](CC(F)(F)F)N(C)C(=O)C[C@@H](C(=O)N(C)C)N(C)C(=O)[C@H](C2CCCC2)N(C)C(=O)C2(CC(C)(C)C2)NC(=O)[C@@H]2C[C@H](C)CN2C(=O)[C@H](CCc2cc(F)c(C(F)(F)F)c(F)c2)NC(=O)CN(C)C(=O)[C@H](Cc2ccc(C(F)(F)F)cc2)N2CC/C=C\C[C@@H](C2=O)N(C)C(=O)CN(C)C1=O` [PP1682], the Kd in assay [1] stood at 0.082 nM. The IC50 in assay [2] amounted to 2.6 nM. In addition, the “NRAS/KRAS (KD ratio)” value in assay [3] is “AA (a compound having 20 or more is denoted as AA)”. Besides, the “HRAS/KRAS (KD ratio)” value in assay [4] is “A (a compound having 10 or more and less than 20 is denoted as A)”.

In the case of `CC[C@H](C)[C@@H]1NC(=O)[C@H](CC)N(C)C(=O)C[C@@H](C(=O)N(C)C)N(C)C(=O)[C@H](C2CCCC2)N(C)C(=O)C2(CC(C)(C)C2)NC(=O)[C@@H]2C[C@H](C)CN2C(=O)[C@H](CCc2cc(F)c(C(F)(F)F)c(F)c2)NC(=O)CN(C)C(=O)[C@H](Cc2ccc(C)cc2)N2CC/C=C\C[C@@H](C2=O)N(C)C(=O)CN(C)C1=O` [PP1856], the Kd in assay [1] was 0.11 nM. Further, the IC50 in assay [2] worked out at 1.4 nM. In addition, the “NRAS/KRAS (KD ratio)” value in assay [3] was “A (a compound having 10 or more and less than 20 is denoted as A)”. Moreover, the “HRAS/KRAS (KD ratio)” value in assay [4] is “A (a compound having 10 or more and less than 20 is denoted as A)”.

As for `CCC[C@H]1C(=O)N[C@@H]([C@@H](C)CC)C(=O)N(C)CC(=O)N(C)[C@H]2C/C=C\CCN(C2=O)[C@@H](Cc2ccc(C(F)(F)F)cc2)C(=O)N(C)CC(=O)N[C@@H](CCc2cc(F)c(C(F)(F)F)c(F)c2)C(=O)N2C[C@H](OCC)C[C@H]2C(=O)NC2(CC(F)(F)C2)C(=O)N(C)[C@@H](C2CCCC2)C(=O)N(C)[C@H](C(=O)N(C)CCC)CC(=O)N1C` [PP1736], the Kd in assay [1] stood at 0.13 nM. Further, in assay [2], the IC50 is 3.6 nM. Further, the “NRAS/KRAS (KD ratio)” value in assay [3] was “A (a compound having 10 or more and less than 20 is denoted as A)”. For the same compound, in assay [4], the “HRAS/KRAS (KD ratio)” value is “A (a compound having 10 or more and less than 20 is denoted as A)”.

On to `CC[C@H](C)[C@@H]1NC(=O)[C@H](CC(F)(F)F)N(C)C(=O)C[C@@H](C(=O)N(C)C)N(C)C(=O)[C@H](C2CCCC2)N(C)C(=O)C2(CC(C)(C)C2)NC(=O)[C@@H]2CCCN2C(=O)[C@H](CCc2cc(F)c(C(F)(F)F)c(F)c2)NC(=O)CN(C)C(=O)[C@H](Cc2ccc(C(F)(F)F)cc2)N2CC/C=C\C[C@@H](C2=O)N(C)C(=O)CN(C)C1=O` [PP1722], for which the Kd in assay [1] is 0.06 nM. In addition, the IC50 in assay [2] was 1.8 nM. Besides, the “NRAS/KRAS (KD ratio)” value in assay [3] is listed as “AA (a compound having 20 or more is denoted as AA)”. The “HRAS/KRAS (KD ratio)” value in assay [4] was “A (a compound having 10 or more and less than 20 is denoted as A)”.

With `CCCN(C)C(=O)[C@@H]1CC(=O)N(C)[C@@H](CCOC)C(=O)N[C@@H]([C@@H](C)CC)C(=O)N(C)CC(=O)N(C)[C@H]2C/C=C\CCN(C2=O)[C@@H](Cc2ccc(C(F)(F)F)cc2)C(=O)N(C)CC(=O)N[C@@H](CCc2ccc(C(F)(F)F)c(OC)c2)C(=O)N2C[C@H](OCC)C[C@H]2C(=O)NC2(CC(C)(C)C2)C(=O)N(C)[C@@H](C2CCCC2)C(=O)N1C` [PP1975], in assay [1], the Kd stood at 0.11 nM. Also, in assay [2], the IC50 was determined as 13.4 nM. Besides, the “NRAS/KRAS (KD ratio)” value in assay [3] is “A (a compound having 10 or more and less than 20 is denoted as A)”. Besides, the “HRAS/KRAS (KD ratio)” value in assay [4] is “A (a compound having 10 or more and less than 20 is denoted as A)”.

`CCCN1C(=O)CN(C)C(=O)CN(C)C(=O)[C@H]([C@@H](C)CC)NC(=O)[C@H](CC(C)C)N(C)C(=O)C[C@@H](C(=O)N2CCOCC2)N(C)C(=O)[C@H](C2CCCC2)N(C)C(=O)C2(COC2)NC(=O)[C@@H]2CCCN2C(=O)[C@H](CCc2ccc(C(F)(F)F)c(Cl)c2)NC(=O)CN(C)C(=O)[C@@H]1Cc1ccc(C(F)(F)F)cc1` [PP1922] ([NMeL]I[Sar][Sar][NPrPhe(4-CF3)][Sar][hPhe(3-Cl-4-CF3)]P[Ac4c(3-oxa)][NMeGly(cPent)][NMeD]-Morpholide; lactam N-11): in assay [1], the Kd was determined as 0.23 nM. In addition, the IC50 in assay [2] worked out at 44.1 nM. Moreover, the “NRAS/KRAS (KD ratio)” value in assay [3] was “B (a compound having 3 or more and less than 10 is denoted as B)”. Further, in assay [4], the “HRAS/KRAS (KD ratio)” value was “C (A compound having a KD ratio of 0.1 or more and less than 3 is denoted as C)”.
